Results as given in ChEMBL document CHEMBL4725220, “Small molecule inhibitors of IκB kinase β: A chip-based screening and molecular docking simulation” (Bioorg Med Chem, 2020).

Target: T1, Inhibitor of nuclear factor kappa-B kinase subunit beta (Homo sapiens, UniProt O14920)
T1 sequence (O14920 whole entry): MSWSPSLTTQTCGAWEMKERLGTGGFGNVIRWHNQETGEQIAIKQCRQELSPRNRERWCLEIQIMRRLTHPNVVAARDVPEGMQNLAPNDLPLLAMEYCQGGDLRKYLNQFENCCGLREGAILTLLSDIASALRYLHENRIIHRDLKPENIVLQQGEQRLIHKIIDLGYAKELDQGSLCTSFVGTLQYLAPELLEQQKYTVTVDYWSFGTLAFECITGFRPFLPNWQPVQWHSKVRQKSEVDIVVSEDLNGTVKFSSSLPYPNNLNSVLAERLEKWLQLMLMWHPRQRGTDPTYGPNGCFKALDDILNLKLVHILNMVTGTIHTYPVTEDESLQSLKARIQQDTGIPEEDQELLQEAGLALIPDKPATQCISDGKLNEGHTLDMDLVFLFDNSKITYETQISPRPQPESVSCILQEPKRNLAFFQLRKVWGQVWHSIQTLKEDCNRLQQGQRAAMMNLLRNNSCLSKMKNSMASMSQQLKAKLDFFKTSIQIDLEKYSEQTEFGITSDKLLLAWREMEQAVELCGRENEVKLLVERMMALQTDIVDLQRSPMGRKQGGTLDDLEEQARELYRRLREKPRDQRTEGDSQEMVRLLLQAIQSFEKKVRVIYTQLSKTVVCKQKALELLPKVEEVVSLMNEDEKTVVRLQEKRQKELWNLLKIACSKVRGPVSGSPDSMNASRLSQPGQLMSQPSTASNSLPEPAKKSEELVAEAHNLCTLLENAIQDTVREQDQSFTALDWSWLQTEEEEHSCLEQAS
Test: Inhibition of IKKbeta (unknown origin) assessed as substrate phosphorylation using IkappaBalpha as substrate incubated for 1 hr in presence of ATP by chip-based fluorescence assay

In order of rising IC50:
1. O=c1oc2c(O)c(O)cc3c(=O)oc4c(O)c(O)cc1c4c23 [ELLAGIC ACID]  1.98 µM
2. O=C1C=C2C[C@]3(O)COc4c(ccc(O)c4O)C3=C2C=C1O  2.18 µM
3. COc1ccc(-c2cc(=O)c3c(O)cc(O[C@@H]4O[C@H](CO[C@@H]5O[C@@H](C)[C@H](O)[C@@H](O)[C@H]5O)[C@@H](O)[C@H](O)[C@H]4O)cc3o2)cc1O [DIOSMIN]  3.89 µM
4. O=C(O)C1=CC(=C(c2ccc(O)c(C(=O)O)c2)c2ccc(O)c(C(=O)O)c2)C=CC1=O [AURINTRICARBOXYLIC ACID]  5.4 µM
5. O=C(c1ccc(Nc2nccc(-c3cc4ccccc4s3)n2)cc1)N1CCC(N2CCCC2)CC1  6.46 µM
